Reference: US20250221410A1, “SUBSTITUTED 2-C-AZINES AND SALTS THEREOF, AND USE THEREOF AS HERBICIDAL ACTIVE SUBSTANCES” (BAYER AKTIENGESELLSCHAFT, priority 2022, published 2025)

Assays:
[1] = tested on: AMARE: Amaranthus retroflexus; assay: Post-emergence herbicidal efficacy at 80 g/ha, AMARE; assay type: in vivo; details: visual rating about 3 weeks after treatment vs untreated controls
Outline: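 Pot-grown weeds in sandy loam were sprayed at one-leaf stage (2–3 weeks post-sowing) with WP or EC formulations plus 0.5% additive at 600 l/ha water. About 3 weeks later in the greenhouse, activity was rated visually against untreated controls, 0% = like control, 100% = dead.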

POLCO = assay: Post-emergence herbicidal efficacy at 80 g/ha, POLCO; assay type: in vivo, Polygonum convolvulus; details: visual rating about 3 weeks after treatment vs untreated controls
Method: (§1) Seeds of monocotyledonous and dicotyledonous weeds and crop plants were placed in sandy loam in plastic or organic planting pots, covered with soil and cultivated in a greenhouse under controlled growth conditions. 2 to 3 weeks after sowing, the test plants were treated at the one-leaf stage. The compounds of the invention, formulated in the form of wettable powders (WP) or as emulsion concentrates (EC), were then sprayed onto the green parts of the plants as aqueous suspension or emulsion with addition of 0.5% additive at a water application rate of 600 l/ha (converted). After the test plants had been kept in the greenhouse under optimum growth conditions for about 3 weeks, the activity of the preparations was rated visually in comparison to untreated controls. For example, 100% activity=the plants have died, 0% activity=like control plants. Tables B1 to B10 below show the effects of selected compounds of the general formula (I) according to Table 1 on various harmful plants and an application rate corresponding to 80 g/ha, which were obtained by the experimental procedure mentioned above.

VERPE: Veronica persica [2] = assay: Post-emergence herbicidal efficacy at 80 g/ha, VERPE; assay type: in vivo; details: visual rating about 3 weeks after treatment vs untreated controls
Method: as §1

[3] = tested on: AMARE: Amaranthus retroflexus; assay: Pre-emergence herbicide efficacy at 80 g/ha, AMARE; assay type: in vivo; details: scored visually after about 3 weeks
Outline: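 Seeds are placed in pots and covered with soil, then the soil surface is treated with the formulated compound in water plus 0.5% additive (600 l/ha equivalent). Plants grow under good greenhouse conditions, and damage is rated visually as a percentage of untreated controls after roughly 3 weeks.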

VERPE: Veronica persica [4] = assay: Pre-emergence herbicide efficacy at 80 g/ha, VERPE; assay type: in vivo; details: scored visually after about 3 weeks
Source text: (§2) Seeds of monocotyledonous and dicotyledonous weed plants and crop plants were placed in plastic or organic planting pots and covered with soil. The compounds of the invention, formulated in the form of wettable powders (WP) or as emulsion concentrates (EC), were then applied to the surface of the covering soil as aqueous suspension or emulsion with addition of 0.5% additive at a water application rate equivalent to 600 l/ha. After the treatment, the pots were placed in a greenhouse and kept under good growth conditions for the test plants. After about 3 weeks, the efficacy of the preparations was scored visually in comparison with untreated controls as percentages. For example, 100% activity=the plants have died, 0% activity=like control plants. Tables D1 to D12 below show the effects of selected compounds of the general formula (I) according to Table 1 on various harmful plants and an application rate corresponding to 80 g/ha, which were obtained by the experimental procedure mentioned above.

[5] = tested on: ABUTH: Abutilon theophrasti; assay: Post-emergence herbicidal efficacy at 1280 g/ha, ABUTH; assay type: in vivo; details: rated visually after about 3 weeks vs untreated controls, 100% = plants have died, 0% = like control plants
Outline: (§3)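 Visual damage rating was made roughly 3 weeks after treatment, relative to untreated plants, on a scale where 0% means no effect and 100% means plants died. Foliar application was at the one-leaf stage as an aqueous WP/EC spray with 0.5% additive at 600 L/ha water, on greenhouse-grown pot plants.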

[6] = tested on: ALOMY: Alopecurus myosuroides; assay: Post-emergence herbicidal efficacy at 1280 g/ha, ALOMY; assay type: in vivo; details: rated visually after about 3 weeks vs untreated controls, 100% = plants have died, 0% = like control plants
Method: (§4) Seeds of mono- and dicotyledonous weed plants were placed in plastic pots in sandy loam soil (doubly sown with in each case one species of mono- or dicotyledonous weed plants per pot), covered with soil and cultivated in a greenhouse under controlled growth conditions. 2 to 3 weeks after sowing, the test plants were treated at the one-leaf stage. The compounds of the invention, formulated in the form of wettable powders (WP) or as emulsion concentrates (EC), were applied to the green parts of the plants as aqueous suspension or emulsion with addition of 0.5% additive at a water application rate equivalent to 600 litres per hectare. After the test plants had been kept in the greenhouse under optimum growth conditions for about 3 weeks, the activity of the preparations was rated visually in comparison to untreated controls. For example, 100% activity=the plants have died, 0% activity=like control plants. Tables A1 to A12 below show the effects of selected compounds of the general formula (I) according to Table 1 on various harmful plants and at an application rate corresponding to 1280 g/ha, which were obtained by the trial procedure specified above.

[7] = tested on: AMARE: Amaranthus retroflexus; assay: Post-emergence herbicidal efficacy at 1280 g/ha, AMARE; assay type: in vivo; details: rated visually after about 3 weeks vs untreated controls, 100% = plants have died, 0% = like control plants
Outline: as §3

[8] = tested on: DIGSA: Digitaria sanguinalis; assay: Post-emergence herbicidal efficacy at 1280 g/ha, DIGSA; assay type: in vivo; details: rated visually after about 3 weeks vs untreated controls, 100% = plants have died, 0% = like control plants
Outline: as §3

[9] = tested on: ECHCG: Echinochloa crus-galli; assay: Post-emergence herbicidal efficacy at 1280 g/ha, ECHCG; assay type: in vivo; details: rated visually after about 3 weeks vs untreated controls, 100% = plants have died, 0% = like control plants
Outline: as §3

KCHSC: Kochia scoparia [10] = assay: Post-emergence herbicidal efficacy at 1280 g/ha, KCHSC; assay type: in vivo; details: visual rating about 3 weeks after treatment vs untreated controls
Outline: as §3

LOLRI: Lolium rigidum = assay: Post-emergence herbicidal efficacy at 1280 g/ha, LOLRI; assay type: in vivo; details: visual rating about 3 weeks after treatment vs untreated controls
Method: as §4

POAAN: Poa annua [11] = assay: Post-emergence herbicidal efficacy at 1280 g/ha, POAAN; assay type: in vivo; details: visual rating about 3 weeks after treatment vs untreated controls
Outline: as §3

SETVI: Setaria viridis [12] = assay: Post-emergence herbicidal efficacy at 1280 g/ha, SETVI; assay type: in vivo; details: visual rating about 3 weeks after treatment vs untreated controls
Outline: as §3

STEME: Stellaria media [13] = assay: Post-emergence herbicidal efficacy at 1280 g/ha, STEME; assay type: in vivo; details: visual rating about 3 weeks after treatment vs untreated controls
Outline: as §3

VERPE: Veronica persica [14] = assay: Post-emergence herbicidal efficacy at 1280 g/ha, VERPE; assay type: in vivo; details: visual rating about 3 weeks after treatment vs untreated controls
Outline: as §3

[15] = tested on: ABUTH: Abutilon theophrasti; assay: Pre-emergence herbicide efficacy at 1280 g/ha, ABUTH; assay type: in vivo; details: visual scoring after about 3 weeks vs untreated controls
Outline: (§5)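 Weed seeds were sown in sandy loam, covered with soil, and the soil surface was treated with the compound, formulated as wettable powder or emulsion concentrate, in water containing 0.5% additive at 600 L/ha. Plants then grew in the greenhouse for roughly 3 weeks before percentage efficacy was scored by eye against untreated controls.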

[16] = tested on: AMARE: Amaranthus retroflexus; assay: Pre-emergence herbicide efficacy at 1280 g/ha, AMARE; assay type: in vivo; details: visual scoring after about 3 weeks vs untreated controls
Outline: as §5

[17] = tested on: DIGSA: Digitaria sanguinalis; assay: Pre-emergence herbicide efficacy at 1280 g/ha, DIGSA; assay type: in vivo; details: visual scoring after about 3 weeks vs untreated controls
Outline: as §5

[18] = tested on: ECHCG: Echinochloa crus-galli; assay: Pre-emergence herbicide efficacy at 1280 g/ha, ECHCG; assay type: in vivo; details: visual scoring after about 3 weeks vs untreated controls
Outline: as §5

KCHSC: Kochia scoparia [19] = assay: Pre-emergence herbicide efficacy at 1280 g/ha, KCHSC; assay type: in vivo; details: visual scoring after about 3 weeks vs untreated controls
Outline: as §5

[20] = tested on: MATIN: Matricaria inodora; assay: Pre-emergence herbicide efficacy at 1280 g/ha, MATIN; assay type: in vivo; details: visual scoring after about 3 weeks vs untreated controls
Outline: as §5

POAAN: Poa annua [21] = assay: Pre-emergence herbicide efficacy at 1280 g/ha, POAAN; assay type: in vivo; details: visual scoring after about 3 weeks vs untreated controls
Outline: as §5

SETVI: Setaria viridis [22] = assay: Pre-emergence herbicide efficacy at 1280 g/ha, SETVI; assay type: in vivo; details: visual scoring vs untreated controls
Outline: as §5

STEME: Stellaria media [23] = assay: Pre-emergence herbicide efficacy at 1280 g/ha, STEME; assay type: in vivo; details: visual scoring vs untreated controls
Outline: as §5

VERPE: Veronica persica [24] = assay: Pre-emergence herbicide efficacy at 1280 g/ha, VERPE; assay type: in vivo; details: visual scoring vs untreated controls
Outline: as §5

KCHSC: Kochia scoparia [25] = assay: Pre-emergence herbicide efficacy at 80 g/ha, KCHSC; assay type: in vivo; details: scored visually after about 3 weeks
Source text: as §2

Structure (SMILES): O=S(=O)(CCC(F)(F)F)Oc1c(F)cccc1Cc1ncc(Cl)cn1 [Example 1-16]
- Post-emergence efficacy against AMARE [1]: 100%
- Post-emergence efficacy against POLCO (POLCO): 80%
- Post-emergence efficacy against VERPE (VERPE: Veronica persica [2]): 90%
- Pre-emergence efficacy against AMARE in % [3]: 100%
- Pre-emergence efficacy against VERPE in % (VERPE: Veronica persica [4]): 90%

Structure (SMILES): Fc1ccc(Oc2c(F)cccc2Cc2ncc(Cl)cn2)cc1 [Example 1-35, 5-Chloro-2-[3-fluoro-2-(4-fluorophenoxy)benzyl]pyrimidine]
- Post-emergence efficacy at 1280 g/ha against ABUTH in % [5]: 100%
- Post-emergence efficacy at 1280 g/ha against ALOMY in % [6]: 90%
- Post-emergence efficacy at 1280 g/ha against AMARE in % [7]: 100%
- Post-emergence efficacy at 1280 g/ha against DIGSA in % [8]: 90%
- Post-emergence efficacy at 1280 g/ha against ECHCG in % [9]: 100%
- Post-emergence efficacy against KCHSC (KCHSC: Kochia scoparia [10]): 100%
- Post-emergence efficacy against LOLRI (LOLRI: Lolium rigidum): 90%
- Post-emergence efficacy against POAAN (POAAN: Poa annua [11]): 90%
- Post-emergence efficacy against SETVI (SETVI: Setaria viridis [12]): 90%
- Post-emergence efficacy against STEME (STEME: Stellaria media [13]): 100%
- Post-emergence efficacy against VERPE (VERPE: Veronica persica [14]): 100%
- Pre-emergence efficacy against ABUTH [15]: 90%
- Pre-emergence efficacy against AMARE [16]: 100%
- Pre-emergence efficacy against DIGSA [17]: 90%
- Pre-emergence efficacy against ECHCG [18]: 90%
- Pre-emergence efficacy against KCHSC (KCHSC: Kochia scoparia [19]): 100%
- Pre-emergence efficacy against MATIN [20]: 90%
- Pre-emergence efficacy against POAAN (POAAN: Poa annua [21]): 90%
- Pre-emergence efficacy against SETVI in % (SETVI: Setaria viridis [22]): 90%
- Pre-emergence efficacy against STEME in % (STEME: Stellaria media [23]): 100%
- Pre-emergence efficacy against VERPE in % (VERPE: Veronica persica [24]): 100%

Structure (SMILES): Clc1cnc(Cc2ccccc2Oc2ncc(Cl)cn2)nc1 [Example 1-50]
- Pre-emergence efficacy against AMARE in % [3]: 90%
- Pre-emergence efficacy against KCHSC in % (KCHSC: Kochia scoparia [25]): 90%
